Test results from PubChem BioAssay (NCI).
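Briefly, cells in 96-well plates were exposed to five compound concentrations for 48 h, and endpoints were estimated by linear interpolation. The concentration for full growth arrest is given as TGI.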

Tests used:
Test in all cases: DTP human tumour cell line panel, 48 h
786-0 renal = system: 786-0 renal
A498 renal = system: A498 renal
A549 NSCLC = system: A549 NSCLC
ACHN renal = system: ACHN renal
BT-549 breast = system: BT-549 breast
CAKI-1 renal = system: CAKI-1 renal
CCRF-CEM leukemia = system: CCRF-CEM leukemia
COLO 205 colon = system: COLO 205 colon
DU-145 prostate = system: DU-145 prostate
EKVX NSCLC = system: EKVX NSCLC
HCC-2998 colon = system: HCC-2998 colon
HCT-116 colon = system: HCT-116 colon
HCT-15 colon = system: HCT-15 colon
HOP-62 NSCLC = system: HOP-62 NSCLC
HOP-92 NSCLC = system: HOP-92 NSCLC
HT29 colon = system: HT29 colon
IGROV1 ovarian = system: IGROV1 ovarian
K-562 leukemia = system: K-562 leukemia
KM12 colon = system: KM12 colon
LOX IMVI melanoma = system: LOX IMVI melanoma
M14 melanoma = system: M14 melanoma
MALME-3M melanoma = system: MALME-3M melanoma
MCF7 breast = system: MCF7 breast
MDA-MB-231 breast = system: MDA-MB-231 breast
MDA-MB-435 = system: MDA-MB-435
MDA-N = system: MDA-N
MOLT-4 leukemia = system: MOLT-4 leukemia
NCI-H226 lung = system: NCI-H226 lung
NCI-H23 lung = system: NCI-H23 lung
NCI-H460 lung = system: NCI-H460 lung
NCI-H522 lung = system: NCI-H522 lung
NCI/ADR-RES ovarian = system: NCI/ADR-RES ovarian
OVCAR-3 ovarian = system: OVCAR-3 ovarian
OVCAR-4 ovarian = system: OVCAR-4 ovarian
OVCAR-5 ovarian = system: OVCAR-5 ovarian
OVCAR-8 ovarian = system: OVCAR-8 ovarian
PC-3 prostate = system: PC-3 prostate
RPMI-8226 leukemia = system: RPMI-8226 leukemia
SF-268 CNS = system: SF-268 CNS
SF-295 CNS = system: SF-295 CNS
SF-539 CNS = system: SF-539 CNS
SK-MEL-2 melanoma = system: SK-MEL-2 melanoma
SK-MEL-28 melanoma = system: SK-MEL-28 melanoma
SK-MEL-5 melanoma = system: SK-MEL-5 melanoma
SK-OV-3 ovarian = system: SK-OV-3 ovarian
SN12C renal = system: SN12C renal
SNB-19 CNS = system: SNB-19 CNS
SNB-75 CNS = system: SNB-75 CNS
SW-620 colon = system: SW-620 colon
TK-10 renal = system: TK-10 renal
U251 CNS = system: U251 CNS
UACC-257 melanoma = system: UACC-257 melanoma
UACC-62 melanoma = system: UACC-62 melanoma
UO-31 renal = system: UO-31 renal
HL-60(TB) leukemia = system: HL-60(TB) leukemia
HS 578T breast = system: HS 578T breast
RXF 393 renal = system: RXF 393 renal
SR leukemia = system: SR leukemia

NC(=O)CCC(NC(=O)c1c2ccccc2nc2ccccc12)C(=O)O (configuration not stated)
TGI (786-0 renal): > 100 µM | TGI (A498 renal): > 100 µM | TGI (A549 NSCLC): > 100 µM | TGI (ACHN renal): > 100 µM | TGI (BT-549 breast): > 100 µM | TGI (CAKI-1 renal): > 100 µM | TGI (CCRF-CEM leukemia): > 100 µM | TGI (COLO 205 colon): > 100 µM | TGI (DU-145 prostate): > 100 µM | TGI (EKVX NSCLC): > 100 µM | TGI (HCC-2998 colon): > 100 µM | TGI (HCT-116 colon): > 100 µM | TGI (HCT-15 colon): > 100 µM | TGI (HOP-62 NSCLC): > 100 µM | TGI (HOP-92 NSCLC): > 100 µM | TGI (HT29 colon): > 100 µM | TGI (IGROV1 ovarian): > 100 µM | TGI (K-562 leukemia): > 100 µM | TGI (KM12 colon): > 100 µM | TGI (LOX IMVI melanoma): > 100 µM | TGI (M14 melanoma): > 100 µM | TGI (MALME-3M melanoma): > 100 µM | TGI (MCF7 breast): > 100 µM | TGI (MDA-MB-231 breast): > 100 µM | TGI (MDA-MB-435): > 100 µM | TGI (MDA-N): > 100 µM | TGI (MOLT-4 leukemia): > 100 µM | TGI (NCI-H226 lung): > 100 µM | TGI (NCI-H23 lung): > 100 µM | TGI (NCI-H460 lung): > 100 µM | TGI (NCI-H522 lung): > 100 µM | TGI (NCI/ADR-RES ovarian): > 100 µM | TGI (OVCAR-3 ovarian): > 100 µM | TGI (OVCAR-4 ovarian): > 100 µM | TGI (OVCAR-5 ovarian): > 100 µM | TGI (OVCAR-8 ovarian): > 100 µM | TGI (PC-3 prostate): > 100 µM | TGI (RPMI-8226 leukemia): > 100 µM | TGI (SF-268 CNS): > 100 µM | TGI (SF-295 CNS): > 100 µM | TGI (SF-539 CNS): > 100 µM | TGI (SK-MEL-2 melanoma): > 100 µM | TGI (SK-MEL-28 melanoma): > 100 µM | TGI (SK-MEL-5 melanoma): > 100 µM | TGI (SK-OV-3 ovarian): > 100 µM | TGI (SN12C renal): > 100 µM | TGI (SNB-19 CNS): > 100 µM | TGI (SNB-75 CNS): > 100 µM | TGI (SW-620 colon): > 100 µM | TGI (TK-10 renal): > 100 µM | TGI (U251 CNS): > 100 µM | TGI (UACC-257 melanoma): > 100 µM | TGI (UACC-62 melanoma): > 100 µM | TGI (UO-31 renal): > 100 µM

CCOC(=O)/C(=C\NC(C)(C)CO)c1nc2ccccc2[nH]1
TGI (786-0 renal): > 100 µM | TGI (A498 renal): > 100 µM | TGI (A549 NSCLC): > 100 µM | TGI (ACHN renal): 97.5 µM | TGI (BT-549 breast): > 100 µM | TGI (CAKI-1 renal): > 100 µM | TGI (CCRF-CEM leukemia): > 100 µM | TGI (COLO 205 colon): > 100 µM | TGI (DU-145 prostate): > 100 µM | TGI (EKVX NSCLC): > 100 µM | TGI (HCC-2998 colon): > 100 µM | TGI (HCT-116 colon): > 100 µM | TGI (HCT-15 colon): > 100 µM | TGI (HL-60(TB) leukemia): > 100 µM | TGI (HOP-62 NSCLC): > 100 µM | TGI (HOP-92 NSCLC): > 100 µM | TGI (HS 578T breast): 97.7 µM | TGI (HT29 colon): > 100 µM | TGI (IGROV1 ovarian): > 100 µM | TGI (K-562 leukemia): > 100 µM | TGI (KM12 colon): > 100 µM | TGI (LOX IMVI melanoma): > 100 µM | TGI (M14 melanoma): > 100 µM | TGI (MALME-3M melanoma): > 100 µM | TGI (MCF7 breast): > 100 µM | TGI (MDA-MB-435): > 100 µM | TGI (MDA-N): > 100 µM | TGI (MOLT-4 leukemia): > 100 µM | TGI (NCI-H23 lung): > 100 µM | TGI (NCI-H460 lung): > 100 µM | TGI (NCI-H522 lung): > 100 µM | TGI (NCI/ADR-RES ovarian): > 100 µM | TGI (OVCAR-3 ovarian): > 100 µM | TGI (OVCAR-4 ovarian): > 100 µM | TGI (OVCAR-5 ovarian): > 100 µM | TGI (OVCAR-8 ovarian): > 100 µM | TGI (RPMI-8226 leukemia): > 100 µM | TGI (RXF 393 renal): > 100 µM | TGI (SF-268 CNS): > 100 µM | TGI (SF-295 CNS): > 100 µM | TGI (SF-539 CNS): > 100 µM | TGI (SK-MEL-28 melanoma): > 100 µM | TGI (SK-MEL-5 melanoma): > 100 µM | TGI (SK-OV-3 ovarian): > 100 µM | TGI (SN12C renal): > 100 µM | TGI (SNB-19 CNS): > 100 µM | TGI (SNB-75 CNS): > 100 µM | TGI (SR leukemia): > 100 µM | TGI (SW-620 colon): > 100 µM | TGI (TK-10 renal): > 100 µM | TGI (UACC-257 melanoma): > 100 µM | TGI (UACC-62 melanoma): > 100 µM | TGI (UO-31 renal): 11.7 µM
